Measured values published in patent publication US6921821B2, “Antagonists of melanin concentrating hormone receptor” (Abbott Laboratories, priority 2002, dated 2005).

Molecular target: T1, murine MCHR (Mus musculus, UniProt Q8JZL2)
T1 construct: expressed in transfected cells; host or cells: HEK293
Assay: Assay for release of intracellular calcium (FLIPR, Fluo-4), inhibition of MCH-induced Ca++ flux
Format: cell-based
Conditions: test compound at a dose of 10 μM, HEK293 cells expressing the murine MCHR, read-out: inhibition of MCH (MCH induced Ca++ flux / fluorescence)
Experimental: Assay for Release of Intracellular Calcium
Activation of the melanin concentrating hormone receptor (MCHR) by MCH induces the release of Ca^++ from intracellular stores. This intracellular calcium release is measured using a fluorometric imaging plate reader (FLIPR™, Molecular Devices Corp.) in conjunction with the Ca^++-sensitive dye Fluo-4. Release of Ca^++ from intracellular stores causes an increase in fluorescence of the dye that is proportional to Ca^++ concentration. Briefly, the assays are performed as follows. HEK293 cells expressing the murine MCHR are plated overnight at 50,000 cells/well in 96-well plates. The following day, culture medium is removed and replaced with 100 μl/well of D-PBS (+glucose and sodium pyruvate) containing 2.5 μM Fluo-4AM (Molecular Probes), 0.01% Pluronic F-127 and 2.5 mM probenecid. Cells are loaded with the Fluo-4 dye for at least one hour at room temp. After loading, the cells are washed gently to remove extracellular dye and 100 μl of D-PBS (+glucose and sodium pyruvate) is added to each well. Test compounds are prepared at 40 μM in 4% DMSO. The cell plate is placed in the FLIPR™ and 50 μl/well of test compound is delivered. The calcium signal is followed for 3 minutes to assay for potential agonist activity by the test compounds. Then 50 μl/well of 12 nM mouse MCH (in D-PBS containing 0.1% BSA) is added and the ligand-induced calcium signal is followed for an additional 3 minutes. Antagonist activity as determined by the test compounds ability to inhibit MCH induced Ca^++ flux is calculated as % inhibition as described by the following formula: % inhibition=[1−((fTC−fB)÷(fMCH−fB))]×100, where fTC=MCH-induced fluorescence in the presence of test compound; fMCH=MCH-induced fluorescence in the absence of test compound; and fB=Baseline fluorescence.
MCH (3 nM) usually elicits a response of 30,000-40,000 relative fluorescence units (RFU) with a baseline of about 1000 RFU. Fluo-4 fluorescence is measured at 488 nm, with an exposure of 0.40 sec. and F-stop=2.0 and the laser set at 0.40-0.60 W constant light output.

T1 sequence (Q8JZL2 whole entry): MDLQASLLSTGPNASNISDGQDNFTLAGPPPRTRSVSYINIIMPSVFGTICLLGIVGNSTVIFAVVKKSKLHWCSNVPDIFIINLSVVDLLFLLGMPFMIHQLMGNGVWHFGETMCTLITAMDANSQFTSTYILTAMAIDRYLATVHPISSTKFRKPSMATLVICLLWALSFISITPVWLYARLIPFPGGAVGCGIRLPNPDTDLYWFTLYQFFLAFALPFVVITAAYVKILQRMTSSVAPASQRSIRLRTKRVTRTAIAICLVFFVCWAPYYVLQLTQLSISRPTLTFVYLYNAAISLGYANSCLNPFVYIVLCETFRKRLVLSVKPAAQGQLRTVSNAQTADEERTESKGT

Inhibition at 10 µM, ≥ 50%:
CC(c1ccc2ncccc2c1)N1CCC(Nc2cc(=O)oc3ccc(Cl)cc23)CC1 (racemic) [II-106, 6-Chloro-4-[1-(1-quinolin-6-yl-ethyl)-piperidin-4-ylamino]-chromen-2-one]
CC(=O)c1ccc(C(C)N2CCC(Nc3cc(=O)oc4ccc(Cl)cc34)CC2)cc1 (racemic) [II-116, 4-{1-[1-(4-acetylphenyl)-ethyl]-piperidin-4-ylamino}-6-chlorochromen-2-one]
COc1ccc([C@@H](C)N2CCC(Nc3cc(=O)oc4ccc(Cl)cc34)CC2)cc1F (stereo in doubt) [II-45, 6-Chloro-4-{1-[1-(3-fluoro-4-methoxy-phenyl)-ethyl]-piperidin-4-ylamino}-chromen-2-one]
COc1ccc2oc(=O)cc(N[C@H]3CCN(Cc4ccc5c(c4)OCO5)C[C@H]3C)c2c1 (stereo in doubt) [II-53, 4-(1-Benzo[1,3]dioxol-5-ylmethyl-3-methyl-piperidin-4-ylamino)-6-methoxy-chromen-2-one]
COc1ccc2oc(=O)cc(N[C@@H]3CCN(Cc4ccc5c(c4)OCO5)C[C@H]3C)c2c1 (stereo in doubt) [II-72, 4-(1-Benzo[1,3]dioxol-5-ylmethyl-3-methyl-piperidin-4-ylamino)-6-methoxy-chromen-2-one]
O=c1cc(NC2CCN(Cc3ccc4ccccc4c3)CC2)c2cc(Cl)ccc2n1Cc1cccnc1 [Compound V-1, 6-Chloro-4-(1-naphthalen-2-ylmethyl-piperidin-4-ylamino)-1-pyridin-3-ylmethyl-1H-quinolin-2-one]
O=c1cc(NC2CCN(Cc3ccc4c(c3)OCO4)CC2)c2cc(Cl)ccc2n1Cc1ccccn1 [Compound V-2, 4-(1-Benzo[1,3]dioxol-5-ylmethyl-piperidin-4-ylamino)-6-chloro-1-pyridin-2-ylmethyl-1H-quinolin-2-one]
O=c1cc(NC2CCN(Cc3ccc4c(c3)OCO4)CC2)c2cc(Cl)ccc2n1Cc1ccccc1 [Compound V-3, 4-(1-Benzo[1,3]dioxol-5-ylmethyl-piperidin-4-ylamino)-1-benzyl-6-chloro-1H-quinolin-2-one]
O=c1cc(NC2CCN(Cc3ccc4c(c3)OCO4)CC2)c2cc(Cl)ccc2n1Cc1ccncc1 [Compound V-4, 4-(1-Benzo[1,3]dioxol-5-ylmethylpiperidin-4-ylamino)-6-chloro-1-pyridin-4-ylmethyl-1H-quinolin-2-one]
O=c1cc(NC2CCN(Cc3ccc4ccccc4c3)CC2)c2cc(Cl)ccc2n1Cc1ccncc1 [Compound V-5, 6-Chloro-4-(1-naphthalen-2-ylmethyl-piperidin-4-ylamino)-1-pyridin-4-ylmethyl-1H-quinolin-2-one]
CCn1c(=O)cc(NC2CCN(Cc3ccc4ccccc4c3)CC2)c2cc(Cl)ccc21 [Compound V-6, 6-Chloro-1-ethyl-4-(1-naphthalen-2-ylmethyl-piperidin-4-ylamino)-1H-quinolin-2-one]
O=c1cc(NC2CCN(Cc3ccc4c(c3)OCO4)CC2)c2cc(Cl)ccc2n1CC(F)(F)F [Compound V-7, 4-(1-Benzo[1,3]dioxol-5-ylmethylpiperidin-4-ylamino)-6-chloro-1-(2,2,2-trifluoroethyl)-1H-quinolin-2-]
COc1ccc2c(c1)c(NC1CCN(Cc3ccc4c(c3)OCO4)CC1)cc(=O)n2C [Compound V-8, 4-(1-Benzo[1,3]dioxol-5-ylmethyl-piperidin-4-ylamino)-6-methoxy-1-methyl-1H-quinolin 2-one]
COc1ccc2c(c1)c(NC1CCN(Cc3ccc4ccccc4c3)CC1)cc(=O)n2C [Compound V-9, 6-Methoxy-1-methyl-4-(1-naphthalen-2-ylmethyl-piperidin-4-ylamino)-1H-quinolin-2-one]
O=c1cc(NC2CCN(Cc3ccc4occc4c3)CC2)c2cc(Cl)ccc2n1Cc1ccncc1 [Compound V-10, 4-(1-Benzofuran-5-ylmethyl-piperidin-4-ylamino)-6-chloro-1-pyridin-4-ylmethyl-1H-quinolin-2-one]
O=c1cc(NC2CCN(Cc3ccc4c(c3)OCO4)CC2)c2cc(Cl)ccc2[nH]1 [Compound V-11, 4-(1-Benzo[1,3]dioxol-5-ylmethyl-piperidin-4-ylamino)-6-chloro-1H-quinolin-2-one]
COc1ccc2c(c1)c(NC1CCN(Cc3ccc4occc4c3)CC1)cc(=O)n2C [Compound V-12, 4-(1-Benzofuran-5-ylmethyl-piperidin-4-ylamino)-6-methoxy-1-methyl-1H-quinolin-2-one]
CCc1ccc2c(c1)c(NC1CCN(Cc3ccc4c(c3)OCO4)CC1)cc(=O)n2C [Compound V-13, 4-(1-Benzo[1,3]dioxol-5-ylmethyl-piperidin-4-ylamino)-6-ethyl-1-methyl-1H-quinolin-2-one]
COc1ccc2c(c1)c(NC1CCN(C/C=C/c3ccccc3)CC1)cc(=O)n2C [Compound V-14, 6-Methoxy-1-methyl-4-[1-(3-phenyl-allyl)-piperidin-4-ylamino]-1H-quinolin-2-one]
CCc1ccc2c(c1)c(NC1CCN(Cc3ccc4c(c3)OCO4)CC1)cc(=O)n2CC [Compound V-17, 4-(1-Benzo[1,3]dioxol-5-ylmethyl-piperidin-4-ylamino)-1,6-diethyl-1H-quinolin-2-one]
CCc1ccc2c(c1)c(NC1CCN(C(C)c3ccc4c(c3)OCO4)CC1)cc(=O)n2CC (centres unmarked) [Compound V-18, 4-[1-(1-Benzo[1,3]dioxol-5-yl-ethyl)-piperidin-4-ylamino]-1,6-diethyl-1H-quinolin-2-one]
O=c1cc(NC2CCN(Cc3ccc4c(c3)OCO4)CC2)c2cc(Cl)ccc2n1Cc1cc[n+]([O-])cc1 [Compound V-19, 4-(1-Benzo[1,3]dioxol-5-ylmethyl-piperidin-4-ylamino)-6-chloro-1-(1-oxy-pyridin-4-ylmethyl)-1H-quinolin-2-one]
CCc1ccc2c(c1)c(NC1CCN(Cc3ccc4ccccc4c3)CC1)cc(=O)n2C [Compound V-20, 6-Ethyl-1-methyl-4-(1-naphthalen-2-ylmethyl-piperidin-4-ylamino)-1H-quinolin-2-one]
Cc1ccc2c(c1)c(NC1CCN(Cc3ccc4ccccc4c3)CC1)cc(=O)n2C [Compound V-22, 1,6-Dimethyl-4-(1-naphthalen-2-ylmethyl-piperidin-4-ylamino)-1H-quinolin-2-one]
N#Cc1c(NC2CCN(Cc3ccc4occc4c3)CC2)c2cc(Cl)ccc2[nH]c1=O [Compound V-23, 4-(1-Benzofuran-5-ylmethyl-piperidin-4-ylamino)-6-chloro-2-oxo-1,2-dihydro-quinoline-3-carbonitrile]
CN(C)C(=O)c1c(NC2CCN(Cc3ccc4ccccc4c3)CC2)c2cc(Cl)ccc2n(C)c1=O [Compound V-24, 6-Chloro-1-methyl-4-(1-naphthalen-2-ylmethyl-piperidin-4-ylamino)-2-oxo-1,2-dihydro-quinoline-3-carboxylic acid dimethylamide]
